In patent publication US20230339851A1, “CXCR6 SULFONAMIDE COMPOUNDS” (CHEMOCENTRYX, INC., priority 2022, published 2023):

Target: T1, human CXCR6 (Homo sapiens, UniProt O00574)
T1 construct: expressed in transfected cells
Assay: Radioligand Binding Assay (125I-CXCL16 displacement)
Settings: L1.2 cells stably transfected with human CXCR6 cDNA, 0.1 nM 125I-CXCL16, 4° C., three-hour incubation; read-out: Potency (IC50)
Procedure: L1.2 cells stably transfected with human CXCR6 cDNA ([…]) were incubated at 4° C. in HBSS containing 0.1 % BSA and 0.1 nM of ^125I-CXCL16 plus various concentrations of Compound. Following a three-hour incubation period, cells were aspirated onto polyethyleneimine-treated GF/B glass fiber filters (PerkinElmer, Waltham, MA) with a cell harvester (Tomtec, Hamden, CT) and washed twice with washing buffer (25 mM Hepes, 500 mM NaCl, 1 mM CaCI2, 5 mM MgCI2, pH 7.1). Fifty µl of MicroScint-20 (PerkinElmer, Waltham, MA) was added to each well of the filters, and radioactive emissions (cpm) were measured on a Packard TopCount Scintillation counter (PerkinElmer, Waltham, MA). IC50 values were calculated with GraphPad Prism using 3 parameter nonlinear regression. […]

T1 sequence (O00574 whole entry): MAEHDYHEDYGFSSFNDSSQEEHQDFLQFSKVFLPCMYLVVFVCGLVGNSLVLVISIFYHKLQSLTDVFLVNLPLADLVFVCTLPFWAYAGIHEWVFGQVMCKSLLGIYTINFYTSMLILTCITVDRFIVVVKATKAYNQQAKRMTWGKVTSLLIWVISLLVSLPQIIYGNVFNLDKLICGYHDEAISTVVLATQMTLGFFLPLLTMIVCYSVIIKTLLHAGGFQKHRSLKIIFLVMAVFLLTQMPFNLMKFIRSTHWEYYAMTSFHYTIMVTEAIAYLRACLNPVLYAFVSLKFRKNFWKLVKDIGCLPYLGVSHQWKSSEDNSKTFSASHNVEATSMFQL

IC50 [nM] | Compound
2000 to 20000 | CCOc1cc(NC(=O)[C@@H](CO)c2ccccc2)ccc1S(=O)(=O)Nc1cccc(OC)c1C [Example 1.045]
750 to 2000 | CCOc1cc(NC(=O)[C@H]2CC=CC[C@H]2C(=O)O)ccc1S(=O)(=O)Nc1ccc(C)c(OC(F)(F)F)c1 (racemic) [Example 1.333]
2000 to 20000 | CCOc1cc(NC(=O)C2CCS(=O)(=O)CC2)ccc1S(=O)(=O)Nc1cccc(OC(F)(F)F)c1 [Example 1.470]
2000 to 20000 | CC(=O)Nc1cc(C)c(S(=O)(=O)Nc2cccc(C(F)(F)F)c2)c(F)c1 [Example 1.451]
2000 to 20000 | CCOc1cc(NC(=O)[C@@H](O)C(C)C)ccc1S(=O)(=O)Nc1cccc(C(F)(F)F)c1C [Example 1.312]
≤ 200 | CCOc1cc(NC(=O)[C@H](O)C2CCCC2)ccc1S(=O)(=O)Nc1cccc(OC(F)(F)F)c1 [Example 1.281]
≤ 200 | CCOc1cc(NC(=O)[C@@H]2CC=CC[C@H]2O)ccc1S(=O)(=O)Nc1cccc(OC(F)(F)F)c1 [Example 1.505]
≤ 200 | CCOc1cc(NC(=O)[C@@H](O)C2CCCC2)ccc1S(=O)(=O)Nc1cccc(OC(F)(F)F)c1 [Example 1.416]
≤ 200 | CCOc1cc(NC(=O)[C@@H](CO)c2ccccc2)ccc1S(=O)(=O)Nc1ccc(C)c(CC)c1 [Example 1.498]
200 to 750 | CCOc1cc(NC(=O)[C@@H](CO)C(C)C)ccc1S(=O)(=O)Nc1ccc(C(F)(F)F)cc1 [Example 1.558]
≤ 200 | CCOc1cc(NC(=O)C(CO)CCC(C)C)ccc1S(=O)(=O)Nc1cccc(OC(F)(F)F)c1 (centres unmarked) [Example 1.128]
200 to 750 | CCOc1cc(NC(=O)[C@@H](O)C(C)C)ccc1S(=O)(=O)Nc1ccc(Cl)c(OC)c1 [Example 1.154]
2000 to 20000 | Cc1cc(NC(=O)c2ccccn2)ccc1S(=O)(=O)Nc1cccc(C(F)(F)F)c1 [Example 1.098]
2000 to 20000 | COc1c(S(=O)(=O)Nc2cccc(OC(F)(F)F)c2)ccc(NC(=O)c2ccnn2C)c1C [Example 1.203]
2000 to 20000 | COc1cc(NC(=O)[C@@H]2C=CCN2C(=O)OC(C)(C)C)ccc1S(=O)(=O)Nc1cccc(C(F)(F)F)c1 [Example 1.033]
2000 to 20000 | CCOc1cc(NC(=O)[C@@H](CO)c2ccccc2)ccc1S(=O)(=O)Nc1cccc(Cl)c1C(F)(F)F [Example 1.350]
200 to 750 | CCOc1cc(NC(=O)[C@@H]2CCOCC[C@@H]2O)ccc1S(=O)(=O)Nc1cccc(OC(F)(F)F)c1 [Example 1.513]
2000 to 20000 | COc1cc(NC(=O)C2CCC(O)CC2)ccc1S(=O)(=O)Nc1cccc(C(F)(F)F)c1 (centres unmarked) [Example 1.140]
750 to 2000 | COc1cc(NC(=O)C2CCO[C@@H]2C)ccc1S(=O)(=O)Nc1cccc(OC(F)(F)F)c1 (some centres unmarked) [Example 1.364]
750 to 2000 | Cc1cc(NC(=O)C2CCCCC2)ccc1S(=O)(=O)Nc1cccc(C(F)(F)F)c1 [Example 1.575]
750 to 2000 | CCOc1cc(NC(=O)[C@@H](O)C(C)C)ccc1S(=O)(=O)Nc1cccc(OC)c1C [Example 1.290]
750 to 2000 | COc1cc(NC(=O)C2CCOCC2)ccc1S(=O)(=O)Nc1cccc(C(F)(F)F)c1 [Example 1.304]
≤ 200 | CCOc1cc(NC(=O)C(O)C2C=CCCC2)ccc1S(=O)(=O)Nc1cccc(OC(F)(F)F)c1 (centres unmarked) [Example 1.246]
750 to 2000 | CCOc1cc(NC(=O)[C@@H](CO)c2ccccc2)ccc1S(=O)(=O)Nc1cccc(Cl)c1Cl [Example 1.272]
≤ 200 | CCOc1cc(NC(=O)[C@@H](O)C(C)C)ccc1S(=O)(=O)Nc1ccc(F)c(OC(F)(F)F)c1 [Example 1.209]
2000 to 20000 | CCOc1cc(NC(=O)[C@H]2CC[C@@](C)(O)CC2)ccc1S(=O)(=O)Nc1cccc(OC(F)(F)F)c1 [Example 1.043]
200 to 750 | CCOc1cc(NC(=O)[C@@H](O)c2ccccc2)ccc1S(=O)(=O)Nc1ccc(C2CC2)c(OC(F)(F)F)c1 [Example 1.556]
200 to 750 | COc1cc(NC(=O)c2cc(C)nn2C)ccc1S(=O)(=O)Nc1cccc(C(F)(F)F)c1 [Example 1.254]
≤ 200 | CCOc1cc(NC(=O)c2cc(=O)n(C)cc2C)ccc1S(=O)(=O)Nc1cccc(OC(F)(F)F)c1 [Example 1.126]
